In patent US11771709B2, “ALK protein degradation agent and anti-tumor application thereof” (ShanghaiTech University, priority 2017, dated 2023):
Read-outs that look alike come from different tables or passages of the source.

Experiments:
[1] = molecular target: T1, ALK protein in H3122 cells (Homo sapiens, UniProt Q9UM73); assay: ALK protein stability after stopping translation with cycloheximide in H3122 cells; type: cell-based; settings: 0.5 uM compound, 1 ug/ml cycloheximide, 12 hours (Ceritinib), 7 hours (SIAIS074017)
T1 construct: EML4 (Echinoderm microtubule-associated protein-like 4, Q9HC35) fusion partner, variant 1; host or cells: NCI-H3122 lung adenocarcinoma cells; the other entry of the earlier key: EML4 (Q9HC35, Echinoderm microtubule-associated protein-like 4)
Experimental: The mechanism of PROTAD compound to degrade its target protein acts through recruiting E3 ubiquitining ligase to the proximity of its target protein, which leads to the target protein being highly ubiquitinzed and eventually being degraded. In order to see the mechanism of ALK PROTAD compounds we developed, we firstly examined the half-life of ALK protein. Because the total level of ALK protein was determined by both the translational activity and protein degradation, we used cyclohexmide to stop protein translation to examine the effect of ALK PROTAD compounds on ALK protein stabilities.
We listed data for Ceritinib-based ALK PROTAD compounds here as an example, and data for other ALK PROTAD compounds were tested in the same way and similar results were found. […] The difference at the total ALK protein level will reflect the different influence of drugs on protein stability.

[2] = test system: ALK positive non-small cell lung cancer; settings: second line treatment (Shaw et al., 2017); cited from earlier work
SR (NPM-ALK) cells = assay: Growth inhibition IC50 in ALCL SR cells (CCK8/WST, 72 hours); type: cell-based; settings: SR cells, WST
Experimental: (§2) SR (NPM-ALK) and NCI-H2228 (EML4-ALK, V3) cells were purchased from ATCC. […] All Cells were cultured in RPMI1640 medium with 10% FBS and Penicillin-Streptomycin in 37° C. incubator with 5% CO2.
(§3) Cells were seeded at specific density in 96 well plates one day before treatment. […] Viable cells were measured via CCK8 reagent and IC50s were calculated via Prism Graphad. Experiments were repeated at least three times.

[3] = molecular target: T2, ALK protein in H3122 (EML4-ALK) cells (Homo sapiens, UniProt Q9UM73); assay: Western blot of ALK protein level (degradation, DC50), ALK phosphorylation and downstream signaling in H3122 cells; type: cell-based; settings: for ALK protein level / degradation: H3122 cells, western blot, up to 500 nM; for DC50: ALK protein degradation in H3122 cells
T2 construct: EML4 (Echinoderm microtubule-associated protein-like 4, Q9HC35) fusion partner, variant 1; host or cells: NCI-H3122 lung adenocarcinoma cells; the other entry of the earlier key: EML4 (Q9HC35, Echinoderm microtubule-associated protein-like 4)
Experimental: (§4) Cancer cells were seeded in 1 ml RPMI1640 medium in 24-well plate at the density of 3×10^5 or 1.5×10^5 cells/ml. […] Then cells were washed twice with PBS and lyzed in RIPA lysis buffer with Halt Proteinase and Phosphotase inhibitor. Equal amount of proteins were loaded to run SDS-PAGE gels after denature. The gels were blotted to PVDF membrane. After incubating with first and secondary antibodies, the images were developed using SuperSignal West Pico Chemiluminescent Substrate.
(§5) DC50 (concentration required to degrade protein by half) were calculated based on the intensity from western blot, and data were analyzed via Prism GraphPad with non-linear regression.

[4] = test system: NCI-H3122 (EML4-ALK, V1) cells; assay: Growth inhibition IC50 in lung cancer H3122 cells (Cell Titer Blue / Cell Titer Glo)
Experimental: as §2, §3

[5] = test system: SW48 cell line (EGFR G719S); assay: Growth inhibition IC50 in EGFR G719S colorectal cancer cell line SW48; type: cell-based; settings: Homo sapiens, CTG, n = 2, read-out: Half Inhibitory Concentration (IC50) Mean
Experimental: as §3

ALK protein in SR cells = molecular target: T3, ALK protein in SR cells (Homo sapiens, UniProt Q9UM73); assay: Block of ALK degradation by proteosome inhibitors MG132 and MLN4924 in SR cells; type: cell-based
T3 construct: NPM (nucleophosmin, NPM1, P06748) fusion partner; host or cells: SR (ALCL) cells; the other entry of the earlier key: NPM1 (P06748, Nucleophosmin)
Text: To further validate the degradation effect act through proteosome mediated pathway, we also treated cells with two different proteosome inhibitors MG132 and MLN4924 to block protein degradation (FIG. 16).

Ba/F3 (EML4-ALK/L1196M) = molecular target: T4, Ba/F3 (EML4-ALK/L1196M) (Homo sapiens, UniProt Q9UM73, L1196M, cells depend on it); assay: Growth inhibition IC50 in Ba/F3 cells expressing EML4-ALK L1196M; type: cell-based
T4 construct: Q9HC35 (Echinoderm microtubule-associated protein-like 4)
Experimental: as §3

[6] = Pharmacokinetics (PK) study in SD rat (IV, IP, PO; LC-MS/MS); type: in vivo; settings: Sprague-Dawley, serum
Experimental: SD rat were used to study the PK of ALK PROTAD compounds. ALK PROTAD compounds SIAIS164008, SIAIS164018, SIAIS164023 and SIAIS151118 were administrated into SD rat via three different routes: IV (Intravenous Injection), IP (Intraperitoneal Injection) and PO ([…]). Blood samples at different sampling time points up to 24 hours post dosing were collected from each animal and analyzed with LC-MS/MS to calculate the PK for each chemical.

Ba/F3 (EML4-ALK/C1156Y) = molecular target: T5, Ba/F3 (EML4-ALK/C1156Y) (Homo sapiens, UniProt Q9UM73, C1156Y, cells depend on it); assay: Growth inhibition IC50 in Ba/F3 cells expressing EML4-ALK C1156Y; type: cell-based
T5 construct: Q9HC35 (Echinoderm microtubule-associated protein-like 4)
Experimental: as §3

H2228 cells (EML4-ALK) = assay: Colony formation assay in H2228 cells; type: cell-based; settings: about 2 weeks
Experimental: (§1) Cell were digested to become single cell suspension. Cells were seeded in the intensity of 250 cells/well in 12 well plate. Treated cells at the concentration of 100, 250, 500 nM. Fixed cells 2-3 weeks after and stained cells with crystyl violate.
In order to see the effect of ALK PROTAD compounds on the colony formation ability of cancer cells, EML4-ALK mutant lung cancer cells H2228 were firstly seeded in 12 well plate at the density of 200 cells per well. Cells were treated with different ALK PROTAD compounds at different concentration for about 2 weeks.

Ba/F3 (EML4-ALK/WT) = molecular target: T6, Ba/F3 (EML4-ALK/WT) (Homo sapiens, UniProt Q9UM73); assay: Growth inhibition IC50 in Ba/F3 cells expressing EML4-ALK wild type; type: cell-based
T6 construct: Q9HC35 (Echinoderm microtubule-associated protein-like 4)
Experimental: as §3

[7] = test system: U118MG cells (FIG-ROS1 gene fusion); assay: Growth inhibition IC50 in ROS1 mutant glioblastoma cell line U118MG (72 hours); type: cell-based; settings: Homo sapiens, U-118-MG; U118MG cells, 72 hours, n = 2, reagent CTG; read-out: Half Inhibitory Concentration (IC50) Mean
MOLM13 cells (FLT3-ITD) = assay: Growth inhibition IC50 in FLT3-ITD AML cell line MOLM13; type: cell-based; settings: Homo sapiens, MOLM-13, MOLM13 cells
Experimental: as §3

[8] = test system: NCI-H2228 (EML4-ALK, V3) cells; assay: Growth inhibition IC50 in lung adenocarcinoma H2228 cells (WST); type: cell-based; settings: Homo sapiens, WST (Table 3)
Text: Experiments were repeated at least three times.
Besides above, we also tested the dosage-dependent effects on the growth inhibition in H2228 cells. […] (Table 3).

[9] = test system: PC9Brc1 (EGFR, exon 19 del+T790M) cells; assay: Growth inhibition IC50 in EGFR mutant lung cancer PC9Brc1 cells; type: cell-based; settings: CTB, n ≥ 3, read-out: Half Inhibitory Concentration (IC50) Mean
Experimental: as §2, §3

[10] = test system: ALK protein in H2228 (EML4-ALK) cells; assay: Western blot of ALK protein level, ALK phosphorylation and downstream signaling in H2228 cells; type: cell-based
Experimental: Cancer cells were seeded in 1 ml RPMI1640 medium in 24-well plate at the density of 3×10^5 or 1.5×10^5 cells/ml. The next day cells were treated with different concentration of drugs for 16 hours. Then cells were washed twice with PBS and lyzed in RIPA lysis buffer with Halt Proteinase and Phosphotase inhibitor. Equal amount of proteins were loaded to run SDS-PAGE gels after denature. The gels were blotted to PVDF membrane. After incubating with first and secondary antibodies, the images were developed using SuperSignal West Pico Chemiluminescent Substrate.
The effect of Brigtinib based PROTAD molecules on the ALK protein total level were studied by western blot in ALCL SR (NPM-ALK) cell line and lung adenocarcinoma cell line H2228 and H3122 (EML4-ALK).
The effects of compounds SIAIS164008 and SIAIS164018 of the present invention on the activation of ALK mediated signaling pathways were also studied in SR cells and H2228 cells. […] The overall effect of compound of SIAIS164018 was better than that of SIAIS164008.

[11] = test system: PC9 (EGFR, exon 19 del) cells; assay: Growth inhibition IC50 in EGFR mutant lung adenocarcinoma PC9 cells; type: cell-based; settings: Homo sapiens, PC-9; PC9 cells, CTB, n ≥ 3; read-out: Half Inhibitory Concentration (IC50) Mean
Experimental: as §2, §3

[12] = molecular target: T7, ALK protein in SR (NPM-ALK) cells (Homo sapiens, UniProt Q9UM73); assay: Western blot of ALK protein level (degradation, DC50), ALK phosphorylation and downstream signaling in SR cells; type: cell-based
T7 construct: NPM (nucleophosmin, NPM1, P06748) fusion partner; host or cells: SR (ALCL) cells; the other entry of the earlier key: NPM1 (P06748, Nucleophosmin)
Experimental: as §4, §5

PC9Brc1 cells = assay: Colony formation assay in PC9Brc1 cells; type: cell-based; settings: PC9 Brc1 cells
Experimental: as §1
ALK PROTAD compound SIAIS1210117 and its negative control epimer SIAIS219050 were used.

[13] = Ceritinib based ALK PROTAD compounds (Table 5)

Q: Which “ALK protein level after stop of translation (protein stability)” value [1] does the source give for `Cc1cc(Nc2ncc(Cl)c(Nc3ccccc3S(=O)(=O)C(C)C)n2)c(OC(C)C)cc1C1CCNCC1` [Ceritinib, reference compound] here?
A: Its value is “did not show much difference”.

Q: And the “increase of progression free survival comparing to second line chemotherapy” value [2]?
A: The value was “about 4 months”.

Q: What about the IC50 (SR (NPM-ALK) cells; [13]) of the same compound?
A: The IC50 was 16 nM.

Q: What about the “ALK protein level / degradation” value [3] of the same compound?
A: The value was “did not affect ALK protein level”.

Q: What about the IC50 ([4]; H3122 cells, CTB (Cell Titer Blue)) of the same compound?
A: The IC50 was 14 nM.

Q: And the IC50 ([4]; H3122 cells, CTG (Cell Titer Glo))?
A: The IC50 was 44 nM.

Q: With `Cc1cc(Nc2ncc(Cl)c(Nc3ccccc3S(=O)(=O)C(C)C)n2)c(OC(C)C)cc1C1CCN(C(=O)CCC(=O)N[C@H](C(=O)N2C[C@H](O)C[C@H]2C(=O)NCc2ccc(-c3scnc3C)cc2)C(C)(C)C)CC1` [SIAIS074017, (2S,4R)-1-((S)-2-(4-(4-(4-((5-chloro-4-((2-(isopropylsulfonyl)phenyl)amino)pyrimidin-2-yl)amino)-5-isopropoxy-2-methylphenyl)piperidin-1-yl)-4-oxobutanamido)-3,3-dimethylbutanoyl)-4-hydroxy-N-(4-(4-methylthiazol-5-yl)benzyl)pyrrolidine-2-carboxamide] as the compound, how does the “ALK protein level after stop of translation (protein stability)” value [1] read?
A: Its value is “significantly reduced ALK protein level”.

Q: And the IC50 (SR (NPM-ALK) cells; [13])?
A: Its IC50 is 116 nM.

Q: What about the DC50 [3] of the same compound?
A: Its DC50 is 100 to 500 nM.

Q: What about the IC50 ([4]; Homo sapiens, NCI-H3122, H3122 cells, CTB (Cell Titer Blue)) of the same compound?
A: Its IC50 is 45 nM.

Q: And the IC50 ([4]; Homo sapiens, NCI-H3122, H3122 cells, CTG (Cell Titer Glo))?
A: Its IC50 is 41 nM.

Q: What does the source list for `COc1cc(N2CCC(N3CCN(C(=O)CNc4cccc5c4C(=O)N(C4CCC(=O)NC4=O)C5=O)CC3)CC2)ccc1Nc1ncc(Cl)c(Nc2ccccc2P(C)(C)=O)n1` (stereo not shown) [SIAIS164018, 4-((2-(4-(1-(4-((5-chloro-4-((2-(dimethylphosphoryl)phenyl)amino)pyrimidin-2-yl)amino)-3-methoxyphenyl)piperidin-4-yl)piperazin-1-yl)-2-oxoethyl)amino)-2-(2,6-dioxopiperidin-3-yl)isoindoline-1,3-dione]?
A: IC50 [5]: 2760 nM; reduction of ALK protein level and its block by MG132 and MLN4924 (ALK protein in SR cells): able to be blocked; GI50 (Ba/F3 (EML4-ALK/L1196M)): 57.4 nM; bioavailability ([6]; IP, 2 mg/kg): 157%; half-life ([6]; IP, 2 mg/kg, read-out: serum half-life (converted)): 3.65 h; Tmax ([6]; IP, 2 mg/kg, read-out: time to maximal serum peak level (Tmax)): ~2.67 h; clearance ([6]; IV, single dose 2 mg/kg, read-out: clearance rate, mean value): ~22.6 mL/min/kg; half-life ([6]; IV, single dose 2 mg/kg, read-out: serum clearance half-life (converted)): ~4.65 h; bioavailability ([6]; PO, 10 mg/kg): 18.4%; Tmax ([6]; PO, 10 mg/kg, read-out: Tmax): 2 h; half-life ([6]; PO, 10 mg/kg, read-out: serum half-life (converted)): 7.09 h; GI50 (Ba/F3 (EML4-ALK/C1156Y)): 42.7 nM; IC50 (SR (NPM-ALK) cells; 72 h, Brigatinib-based PROTAD molecules (Table 3)): 2 ± 1.4 nM; colony formation (H2228 cells (EML4-ALK)): dramatically inhibited; GI50 (Ba/F3 (EML4-ALK/WT)): 30.9 nM; IC50 [7]: 16900 nM; IC50 (MOLM13 cells (FLT3-ITD); n = 2, reagent CTG, read-out: Half Inhibitory Concentration (IC50) Mean): 79 nM; IC50 (MOLM13 cells (FLT3-ITD); read-out: IC50): 79 nM; IC50 [8]: 17.9 nM; DC50 [3]: 1 to 10 nM; ALK protein level / degradation [3]: a similar effects was observed; IC50 [9]: 900 nM; phosphorylation of ALK protein and activation of PI3K/AKT pathway [10]: inhibited; IC50 [11]: 150 nM; DC50 ([12]; ALK protein degradation in SR cells): 0.5 to 1 nM; concentration at which ALK proteins were degraded ([12]; SR cells, western blot): less than 1 nM; concentration inhibiting the phosphorylation of ALK proteins ([12]; SR cells, western blot): 0.1 nM; downstream signaling pathway (PI3K/AKT, MEK/ERK and STAT3) ([12]; SR cells, western blot): significantly inhibited; ALK protein degradation ([12]; SR cells, western blot, 16 hours, up to 500 nM): effectively degrade ALK proteins at nano mole concentration

Q: Which results are given for `COc1cc(N2CCC(NC(=O)CCCCCCCCCC(=O)N[C@H](C(=O)N3C[C@@H](O)C[C@H]3C(=O)NCc3ccc(-c4scnc4C)cc3)C(C)(C)C)CC2)ccc1Nc1ncc(Cl)c(Nc2ccccc2P(C)(C)=O)n1` [SIAIS219050, N1-(1-(4-((5-chloro-4-((2-(dimethylphosphoryl)phenyl)amino)pyrimidin-2-yl)amino)-3-methoxyphenyl)piperidin-4-yl)-N11-((S)-1-((2S,4S)-4-hydroxy-2-((4-(4-methylthiazol-5-yl)benzyl)carbamoyl)pyrrolidin-1-yl)-3,3-dimethyl-1-oxobutan-2-yl)undecanediamide]?
A: reduction of ALK protein level and its block by MG132 and MLN4924 (ALK protein in SR cells): did not have such effect; colony formation (PC9Brc1 cells): could not; ALK protein degradation within a time course ([12]; SR cells, 100 nM, 4 hours (SIAIS1210117), up to 24 hours (epimer)): did not induce degradation of ALK protein
